Entries after “also recorded” stand apart in the source; their conditions may differ.
Columns and labels:
[1] = system: lethally irradiated CD45.1 recipient mice; assay: Competitive repopulation assay of 14-day cultures; type: in vivo, mouse; conditions: for Average repopulation: long-term engraftment (FIGS. 5 and 13)
Protocol: For the experimental results shown in FIG. 13A, sorted LSK Flk2^− cells and unsorted MNCs containing a known quantity of LSK Flk2^− cells (CD45.2^+) were cultured for 14 days in ST media with and without CHIR99021. The cultured product of 100 sorted or 5 unsorted LSK Flk2^− cells per mouse were transplanted into lethally irradiated recipients (CD45.1^+). 5 freshly isolated, unsorted LSK Flk2^− cells per mouse were transplanted into a separate group. 1×10^5 freshly isolated CD45.1^+ competitor/radioprotective cells were also added per mouse. Peripheral blood analysis of recipients at 16 weeks post-transplant depicts % chimerism.
(§1) Bone marrow mononuclear cells (MNCs) were fractionated and the concentration of lineage marker negative, Sca-1^+, c-Kit^+, Flk2^− (LSKF^−) cells was determined. MNCs containing a known quantity of LSKF^− cells were cultured for 14 days in media containing SCF and Tpo (ST), ST media with 250 nM CHIR99021 or ST media with 2 mM lithium chloride (LiCl) as indicated. After 14 days, the cellular product of these cultures was transplanted into lethally-irradiated recipients (10 Gray units) at a dosage corresponding to an original input into culture of MNCs containing 5 LSKF^− cells per mouse for each group. 1×10^5 competitor bone marrow cells congenic with the hosts (CD45.1^+) were included per mouse. At 4 weeks post-transplant, peripheral blood was collected from each transplant recipient, and donor vs. host derived hematopoietic cells were determined by FACS analysis.
as §1, with “At 16” for “At 4”
Cells were incubated at 37° C. with 5% CO2 and 5% O2 (balance N2) for 14 days. […]

LSK Flk2^− cells = assay: Ex vivo culture of sorted LSK Flk2^− cells with GSK-3β and PTEN inhibitors, expansion by FACS; type: cell-based, mouse
Protocol: LSK or LSK Flk2^− cells were sorted into 96-well U-bottom tissue culture plates at 100 cells/well with 200 μl media/well. Cells were incubated at 37° C., 5% O2, 5% CO2 (balance N2) for the indicated number of days. One-half total volume of media (see Table 1, below for the base media) was carefully pipetted from the top and replaced with fresh media every other day.
One hundred LSK Flk2^− cells were sorted from wild-type (C57Bl/6) mice and cultured in (1) media, (2) media+1 μM CHIR99021 (a GSK-3β inhibitor, a gift from Dr. Sheng Ding), (3) media+200 nM Dipotassium Bis-peroxo(picolinato)oxovanadate (BpV(pic), a PTEN inhibitor, available from Calbiochem, Cat. No. 203705), (4) media+1 μM CHIR99021+200 nM BpV(pic), (5) media+200 nM Shikonin (also a PTEN inhibitor, available from Calbiochem, Cat. No. 565850), and (6) media+200 nM Shikonin+1 μM CHIR99021. (FIGS. 3B-C). Cells were cultured as described above. Cells were examined at 17 days of culture (FIG. 3B, original magnification 100×) and 23 days (FIG. 3C, original magnification 40×).
LSK Flk2^− cells at 28 days culture in the indicated media conditions were examined (FIG. 3D, original magnification 200×).
FACS analysis of 28 day LSK Flk2^− cells cultured in media+BpV(pic)+CHIR99021 (FIG. 3E) was performed. Cells were pre-gated on live, lineage negative cells.
Fold expansion of LSK Flk2^− cells after 28 days culture in (1) media, (2) media+BpV(pic), (3) media+CHIR99021, and (4) media+CHIR99021+BpV(pic) were analyzed.
Cells cultured for 9 days in (1) media, (2) media+BpV(pic) (200 nM), (3) media+CHIR99021 (100 nM), and (4) media+CHIR99021 (100 nM)+BpV(pic) (200 nM) were re-sorted for LSK Flk2^− cells, and fold expansion of LSK Flk2^− cells after 9 days culture in the indicated conditions was determined (FIG. 3I).
FACS analysis was performed on 9 day LSK Flk2^− cells cultured in media+BpV(pic) (200 nM)+CHIR99021 (100 nM) (FIG. 3J). Cells were pre-gated on live, lineage negative cells.

Compound: Cc1c[nH]c(-c2cnc(NCCNc3ccc(C#N)cn3)nc2-c2ccc(Cl)cc2Cl)n1 [CHIR99021]
- Repopulation capacity of ex vivo expanded HSCs ([1]; 4 weeks post-transplant, 250 nM CHIR99021 or 2 mM LiCl in ST media, 14 days): enhance repopulation capacity of ex vivo expanded hematopoietic stem cells
- Long-term repopulation / engraftment of ex vivo expanded HSCs ([1]; 16 weeks post-transplant, 250 nM CHIR99021 or 2 mM LiCl in ST media, 14 days): enhance long-term repopulation capacity of ex vivo expanded hematopoietic stem cells; also recorded: enhances long-term engraftment of ex vivo expanded HSCs
- Average repopulation ([1]; 100 sorted putative HSCs cultured 14 days): 12.3%
- Average repopulation ([1]; unsorted MNC cultures, 14 days): 64.8%
- Expansion of LSK cells compared to control (photographs) (LSK Flk2^− cells; 17 and 23 days culture, 1 μM CHIR99021, 200 nM BpV(pic)): greater expansion of LSK cells
- Expansion of LSK Flk2^− cells compared to media without inhibitor (LSK Flk2^− cells; 28 days culture): significant expansion

From patent US9896659B2, “Methods, kits, and compositions for stem cell self-renewal” (STOWERS INSTITUTE FOR MEDICAL RESEARCH, priority 2011, dated 2018)
